Several values for one entry are separate records, joined by “and”; a condition that tells them apart may be missing. Equal values may be shown once.
What was measured:
naïve C3H/HeJ mice [1] = assay: Acute toxicity assay; format: in vivo
Method: (§1) For acute toxicity analysis, naïve C3H/HeJ mice were fed with 4 mg of XPP per mouse, which is10 times of the daily dose. […] In the sub-chronic toxicity assay, naïve C3H/HeJ mice were fed with 5 times their daily therapeutic dose (2 mg/day) for 14 days. Control group mice (sham) were fed with water. Blood samples were collected at the end of each experiment. Blood urea nitrogen (BUN) and alanine aminotransferase (ALT) measurements for the evaluation of kidney and liver functions respectively and complete blood count (CBC) testing were performed by ALX laboratories, NY.

[2] = test system: splenocytes (SPCs) and mesenteric lymph node (MLN) cells; assay: Cytokines in CPE-stimulated splenocyte and MLN cell cultures from treated mice (Model #2), ELISA; format: in vivo, C3H/HeJ mice; details: model #2, CPE stimulation, vs sham
Method: Mice were sacrificed at the end of each experiment. The splenocytes (SPCs) and mesenteric lymph node (MLN) cells of each mouse was collected as previously described ([37]). Cells (4 x10^6/well/mL) were cultured in 24 well plates in the presence or absence of CPE (200 µg/mL). After 72 hrs of incubation at 37°C under 5% CO2, supernatants were collected. Cytokine levels were measured using ELISA kits in triplicate according to the manufacturer’s instructions (BD Biosciences, San Jose, CA and R&D systems, Minneapolis, MN).

IgE+ B cells = assay: Flow cytometry of IgE+ B cells in spleen and bone marrow of treated mice (Model #2); format: in vivo, C3H/HeJ mice; details: model #2, vs sham
Method: Single cell suspensions of spleen, bone marrow from two femurs and heparinized peripheral blood were isolated in AIM-V medium. Erythrocytes were lysed with red cell lysing buffer (Sigma-Aldrich, St. Louis, MO). For staining, cells were suspended in ice cold staining buffer (PBS including 0.5 mM EDTA, 0.05 mM Sodium Azide, 0.5% BSA). Surface staining was performed by incubating cells with unlabeled anti-IgE (to block membrane IgE), BV605 anti-B220, BV711-anti-CD3, anti-CD16/32 (Fc-block), all from BD Biosciences, CA). Live-dead discriminating dye (Live-Dead Aqua, Invitrogen, CA) was included. After incubation, cells were washed and suspended in fixation/permeabilization buffer for 15 mins. Cells were washed with permeabilization buffer and incubated with Fitc-anti IgE in permeabilization buffer for 30 mins in the dark on ice. After washing, cells were treated with Cytofix buffer for 15 mins for post-fixation and then washed 3 times with staining buffer and finally resuspended in 200 µL staining buffer for cell acquisition on LSRII flow cytometer (BD Bioscience, San Jose, CA). Flow cytometry analysis was performed using Flow Jo 5.4 software (Tree Star Inc., Ashland, Oregon) as follows. […] From live cell gate, all IgE+ (Fitc-IgE) cells were gated and subsequently analyzed for IgE+ B cells (Fitc-IgE +; BV605-B220+ cells).

naïve C3H/HeJ mice [3] = assay: Sub-chronic toxicity assay; format: in vivo
Method: as §1

U266 cells [4] = assay: Cell viability of U266 cells by trypan blue exclusion; format: cell-based, human; details: all concentrations tested (2.5-40 µg/mL)
Method: Cell viability was evaluated using a trypan blue exclusion as previously described ([31]). Briefly, a 10µL of cells suspension from each culture was mixed with equal volume of trypan blue dye. The mixture was loaded into a hemocytometer and cells were counted under a microscope. The percentage of viable cells was calculated as follows: Viable cells (%) = (total number of viable cells)/(total number of cells) × 100.

PN-allergic C3H/HeJ mice = assay: Peanut-allergic mouse models (Model #1 systemic i.p. sensitization, early treatment; Model #2 oral sensitization, late treatment) with oral PN challenge; format: in vivo; details: for Time after stopping treatment at which protection from anaphylaxis persisted: model #1
IL-4 promoter = IL-4 promoter DNA methylation (CpG-393) in splenocytes of treated mice, bisulfite pyrosequencing; format: in vivo, C3H/HeJ mice; details: model #2, vs sham
Text: Genomic DNA was isolated from mouse splenocytes collected from orally sensitized mouse model#2 using Qiagen mini DNA/RNA extraction kit (Qiagen, Valencia, CA). Isolated DNA was bisulfite-modified using an Epitect plus DNA Bisulfite kit (Qiagen) following the manufacturer’s instructions. Bisulfite converted DNA was then amplified with the IL-4 primers listed below by PCR. The PCR products were subsequently purified and pyrosequenced using sequencing primers on a Pyromark Q24 system (Qiagen) as described previously ([38]). Primers for IL-4; Fwd: […]; Rev-Biotin-[…]. Sequencing (CpG -393) […].

U266 cells [5] = assay: RT-PCR of candidate genes in XPP-treated U266 cells; format: cell-based, human
Method: RT-PCR analysis of genes related to Cell cycle, B cell differentiation, and IgE production was performed by QuantStudio 5 real-time PCR system (Thermo Fisher, Waltham, MA). For each PCR reaction, 12.5 μL maxima SYBR Green/ROX qPCR Master Mix 2x (Thermo Fisher, Waltham, MA) was mixed with 1.8 μL of 0.3 μM target primers and 300 ng of template DNA to make the total volume as 25 μL. The PCR procedure was set as […] 25°C for 5 min, 42°C for 60 min and 70°C for 15 min. GAPDH was used as the housekeeping gene. The Delta Ct values for each gene were calculated by normalizing the Ct values with the housekeeping gene. The relative fold change in mRNA expression between different groups was calculated and expressed as 2^−ΔΔCT. The primer sequence used are shown in Supplementary Table 1 .

[6] = 10x dose (4 mg/mouse) once, observed 14 days
[7] = model #1, 7 weeks after stopping therapy
[8] = orally sensitized mouse model #2

Structure (SMILES): O=C1c2ccccc2C(=O)c2c(O)cc(O)cc21 [XPP, xanthopurpurin]
- Deaths, abnormal behavior or diarrhea (naïve C3H/HeJ mice [1]; 10 times (4 mg/day) once, observed daily for 14 days): No deaths and abnormal behavior or diarrhea were observed
- Morbidity (naïve C3H/HeJ mice [1]; [6]): 0.00%
- Mortality (naïve C3H/HeJ mice [1]; [6]): 0.00%
- IL-4 level in MLN cultures ([2]; 72 hrs): significantly inhibited IL-4 level
- IL-4 level in splenocyte cultures ([2]; 72 hrs): significantly inhibited IL-4 level
- IFN-γ production in MLN cultures [2]: no significant differences
- IFN-γ production in SPC cultures [2]: no significant differences
- IL-10 production in MLN cultures [2]: no significant differences
- IL-10 production in SPC cultures [2]: no significant differences
- Percentage of IgE+ B cells (over all IgE+ cells) in bone marrow (IgE+ B cells; p < 0.001): significantly reduced
- Percentage of IgE+ B cells (over all IgE+ cells) in spleen (IgE+ B cells; p < 0.01): significantly reduced
- CBC: white blood cell, red blood cell, hemoglobin and platelet levels vs control group and normal range (naïve C3H/HeJ mice [3]; mouse, in vivo): within the normal range and similar to the control group
- Deaths, abnormal behavior or diarrhea (naïve C3H/HeJ mice [3]; sub-chronic, 5 times (2 mg/day) for 14 consecutive days): No deaths and abnormal behavior or diarrhea were observed either
- Mortality (naïve C3H/HeJ mice [3]; sub-chronic, 5x dose (2 mg/day/mouse) for 14 days): 0.00%
- Toxicity / cell viability of U266 cells (trypan blue) (U266 cells [4]): No toxicity was observed at any concentration tested
- Body temperatures after PN challenge (PN-allergic C3H/HeJ mice; both models, 30 minutes after challenge, p < 0.001 vs. Sham): normal body temperatures
- Reduction of PN-specific IgE levels at challenge vs. sham (PN-allergic C3H/HeJ mice; both models, oral XPP 400 µg/day): > 80% and 75%
- Plasma histamine levels after PN challenge (PN-allergic C3H/HeJ mice; both models, p < 0.001): essentially normal plasma histamine levels
- Symptom scores following PN challenge (PN-allergic C3H/HeJ mice; both models, score 0-5, p <0.001 vs. Sham): 0
- Time after stopping treatment at which protection from anaphylaxis persisted (PN-allergic C3H/HeJ mice): 5 weeks
- Body temperatures, sustained effect (PN-allergic C3H/HeJ mice; [7]): increased
- PN-specific IgE levels, sustained effect (PN-allergic C3H/HeJ mice; [7]): significantly reduced
- Symptom scores, sustained effect (PN-allergic C3H/HeJ mice; [7]): significantly reduced
- Time after stopping treatment at which protection from anaphylaxis persisted (PN-allergic C3H/HeJ mice; listed as xanthopurpurin): 7 weeks
- Fecal PN-specific IgA (PN-allergic C3H/HeJ mice; [8]): did not reduce
- Serum PN-specific IgG1 (PN-allergic C3H/HeJ mice; [8]): did not reduce
- Serum PN-specific IgG2a (PN-allergic C3H/HeJ mice; [8]): did not reduce
- Percentages of CpG methylation for CpG-393 of IL-4 promoter (IL-4 promoter): showed an increase
- CCND1 gene expression (U266 cells [5]; XPP 20 μg/mL, p < 0.001): significantly reduced
- IL6R gene expression (U266 cells [5]; XPP 20 μg/mL, p < 0.001): significantly reduced
- SCD1 gene expression (U266 cells [5]; XPP 20 μg/mL, p < 0.001): significantly reduced
- DUSP4 gene expression (U266 cells [5]; XPP 20 μg/mL, p < 0.01): significantly increased
- PTPRC gene expression (U266 cells [5]; XPP 20 μg/mL, p < 0.01): significantly increased
- ETS1 gene expression (U266 cells [5]; increasing XPP concentration): upregulation trend with the increasing concentration of XPP, but no significant value was observed

From PMC10876879, “Sustained silencing peanut allergy by xanthopurpurin is associated with suppression of peripheral and bone marrow IgE-producing B cell” (Frontiers in Immunology, 2024)
